Assay results taken from article PMC6979384, “Characterization of the plant homeodomain (PHD) reader family for their histone tail interactions” (Epigenetics & Chromatin, 2020).

Experiments:
Test in all cases: Histone peptide microarray
Type in all cases: binding, human
Conditions in all cases: sheet "Array Heatmap"; GST-tagged reader; histone peptide array, total n = 4
AIRE (PP) = test system: AIRE (PP)
Summary of the method: (§1)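 Recombinant GST-PHD protein at 0.5 μM; 293-member modified histone peptide array; signals averaged from four repeats ± SD.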

BAZ2B = test system: BAZ2B
Summary of the method: as §1

BPTF (PB) = test system: BPTF (PB)
Summary of the method: as §1

CHD4 (PPCC) = test system: CHD4 (PPCC)
Summary of the method: as §1

CHD5 (PCC) = test system: CHD5 (PCC)
Summary of the method: as §1

CHD5 (PPCC) = test system: CHD5 (PPCC)
Summary of the method: as §1

DIDO1 = test system: DIDO1
Summary of the method: as §1

DPF2 (PPC2W2) = test system: DPF2 (PPC2W2)
Summary of the method: as §1

ING1 = test system: ING1
Summary of the method: as §1

ING2 = test system: ING2
Summary of the method: as §1

ING3 = test system: ING3
Summary of the method: as §1

ING4 = test system: ING4
Summary of the method: as §1

ING5 = test system: ING5
Summary of the method: as §1

KDM4C (TTP) = test system: KDM4C (TTP)
Summary of the method: as §1

KDM5A (1) = test system: KDM5A (1)
Summary of the method: as §1

KDM5A (3) = test system: KDM5A (3)
Summary of the method: as §1

KDM5B (1) = test system: KDM5B (1)
Summary of the method: as §1

KDM5B (3) = test system: KDM5B (3)
Summary of the method: as §1

KDM7A = test system: KDM7A
Summary of the method: as §1

MLL5 = test system: MLL5
Summary of the method: as §1

MORC3 (CW) = test system: MORC3 (CW)
Summary of the method: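 GST-PHD reader, 0.5 μM, probed on 293-peptide histone array (single/combinatorial PTMs); optimized array protocol; signal = mean ± SD, n = 4.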

PHF13 = test system: PHF13
Summary of the method: as §1

PHF21A = test system: PHF21A
Summary of the method: as §1

PHF23 = test system: PHF23
Summary of the method: as §1

PHF2 = test system: PHF2
Summary of the method: as §1

PHF8 = test system: PHF8
Summary of the method: as §1

PHRF1 (RP) = test system: PHRF1 (RP)
Summary of the method: as §1

RAG2 = test system: RAG2
Summary of the method: as §1

SP140L = test system: SP140L
Summary of the method: as §1

TAF3 = test system: TAF3
Summary of the method: as §1

TRIM66 (PB) = test system: TRIM66 (PB)
Summary of the method: as §1

Row | Substance | Array Heatmap signal, AIRE (PP) (AIRE (PP)) | Array Heatmap signal, BAZ2B (BAZ2B) | Array Heatmap signal, BPTF (PB) (BPTF (PB)) | Array Heatmap signal, CHD4 (PPCC) (CHD4 (PPCC)) | Array Heatmap signal, CHD5 (PCC) (CHD5 (PCC)) | Array Heatmap signal, CHD5 (PPCC) (CHD5 (PPCC)) | Array Heatmap signal, DIDO1 (DIDO1) | Array Heatmap signal, DPF2 (PPC2W2) (DPF2 (PPC2W2)) | Array Heatmap signal, ING1 (ING1) | Array Heatmap signal, ING2 (ING2) | Array Heatmap signal, ING3 (ING3) | Array Heatmap signal, ING4 (ING4) | Array Heatmap signal, ING5 (ING5) | Array Heatmap signal, KDM4C (TTP) (KDM4C (TTP)) | Array Heatmap signal, KDM5A (1) (KDM5A (1)) | Array Heatmap signal, KDM5A (3) (KDM5A (3)) | Array Heatmap signal, KDM5B (1) (KDM5B (1)) | Array Heatmap signal, KDM5B (3) (KDM5B (3)) | Array Heatmap signal, KDM7A (KDM7A) | Array Heatmap signal, MLL5 (MLL5) | other results
1 | H3R8me2a + K9me3: H3 1-20 | 0.4401 | 0.4376 | 0.3424 | 0.5686 | 0.7117 | 0.5418 | 0.7155 | 0.714 | 0.57 | 0.595 | 0.4657 | 0.4504 | 0.3474 | 0.4618 | 0.4583 | 0.5315 | 0.64 | 0.5093 | 0.3302 | 0.5407 | Array Heatmap signal, MORC3 (CW) (MORC3 (CW)): 0.4005; Array Heatmap signal, PHF13 (PHF13): 0.5734; Array Heatmap signal, PHF21A (PHF21A): 0.4463; Array Heatmap signal, PHF23 (PHF23): 0.5164; Array Heatmap signal, PHF2 (PHF2): 0.5753; Array Heatmap signal, PHF8 (PHF8): 0.3554; Array Heatmap signal, PHRF1 (RP) (PHRF1 (RP)): 0.6376; Array Heatmap signal, RAG2 (RAG2): 0.2449; Array Heatmap signal, SP140L (SP140L): 0.3611; Array Heatmap signal, TAF3 (TAF3): 0.2595; Array Heatmap signal, TRIM66 (PB) (TRIM66 (PB)): 0.5712
2 | H3R8me2a: H3 1-20 [Peptide H3R8me2a] | 0.5572 | 0.437 | 0.3288 | 0.5373 | 0.7162 | 0.5334 | 0.6465 | 0.6583 | 0.4976 | 0.6044 | 0.4474 | 0.4314 | 0.3481 | 0.4962 | 0.4494 | 0.6079 | 0.6786 | 0.4831 | 0.3419 | 0.5074 | Array Heatmap signal, MORC3 (CW) (MORC3 (CW)): 0.4558; Array Heatmap signal, PHF13 (PHF13): 0.5768; Array Heatmap signal, PHF21A (PHF21A): 0.4488; Array Heatmap signal, PHF23 (PHF23): 0.5221; Array Heatmap signal, PHF2 (PHF2): 0.4368; Array Heatmap signal, PHF8 (PHF8): 0.3345; Array Heatmap signal, PHRF1 (RP) (PHRF1 (RP)): 0.6824; Array Heatmap signal, RAG2 (RAG2): 0.2386; Array Heatmap signal, SP140L (SP140L): 0.3504; Array Heatmap signal, TAF3 (TAF3): 0.2542; Array Heatmap signal, TRIM66 (PB) (TRIM66 (PB)): 0.5681
